Assay results reported in PubChem BioAssay (NCI).
“And” between values parts separate entries of the source, which are not always exact repeats. Equal entries are not always repeated.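 Exposure lasted 48 hours, with cells grown in 96-well plates and compounds tested at five concentrations. The concentration for 50% growth inhibition is given as GI50. At the TGI there is no net growth.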

What was measured:
Assay in all cases: growth of human tumour cells (NCI), 48 h
A549 NSCLC = tested on: A549 NSCLC
UACC-62 melanoma = tested on: UACC-62 melanoma
SK-OV-3 ovarian = tested on: SK-OV-3 ovarian
NCI-H460 lung = tested on: NCI-H460 lung
DMS 273 small cell lung = tested on: DMS 273 small cell lung
KM20L2 colon = tested on: KM20L2 colon
XF 498 CNS = tested on: XF 498 CNS
ACHN renal = tested on: ACHN renal
DLD-1 colon = tested on: DLD-1 colon
LXFL 529 NSCLC = tested on: LXFL 529 NSCLC
M19-MEL melanoma = tested on: M19-MEL melanoma
HOP-92 NSCLC = tested on: HOP-92 NSCLC
TK-10 renal = tested on: TK-10 renal
HOP-18 NSCLC = tested on: HOP-18 NSCLC

Compound | TGI (A549 NSCLC) [µM] | TGI (UACC-62 melanoma) | TGI (SK-OV-3 ovarian) | TGI (NCI-H460 lung) [µM] | TGI (DMS 273 small cell lung) [µM] | TGI (KM20L2 colon) [µM] | TGI (XF 498 CNS) | TGI (ACHN renal) | TGI (DLD-1 colon) [µM] | TGI (LXFL 529 NSCLC) [µM] | TGI (M19-MEL melanoma) [µM] | TGI (HOP-92 NSCLC) | TGI (TK-10 renal) | TGI (HOP-18 NSCLC) [µM] | GI50 (HOP-92 NSCLC) | GI50 (XF 498 CNS) | GI50 (UACC-62 melanoma) | GI50 (NCI-H460 lung) | GI50 (TK-10 renal) | GI50 (ACHN renal)
CCOC(=O)C1=C(C)N(NC(=O)OC)C2(N)N(NC(=O)OC)C(C)=C(C(=O)OCC)C12C#N (stereo not given) | > 100 | > 100 µM | > 100 µM | > 100 | > 100 | > 100 | > 100 µM | > 100 µM | > 100 | > 100 | > 100 | – | – | – | – | – | – | – | – | –
Cc1nnc2n1N=C(c1ccc(-c3ccc([N+](=O)[O-])cc3)o1)CS2 | > 100 | > 100 µM | > 100 µM | > 100 | > 100 | > 100 | – | > 100 µM | > 100 | > 100 | > 100 | > 100 µM | > 100 µM | – | – | – | – | – | – | –
C/C(CC(=O)Nc1ccccc1)=N\NC(N)=S | > 100 | > 100 µM | > 100 µM | > 100 | > 100 | > 100 | > 100 µM | – | > 100 | > 100 | > 100 | > 100 µM | > 100 µM | – | – | – | – | – | – | –
C/C(=C(/C)c1cc[n+](C)cc1)c1cc[n+](C)cc1 | > 75 | > 75 µM | > 75 µM | > 75 | > 75 | > 75 | – | > 75 µM | > 75 | > 75 | – | > 75 µM | > 75 µM | > 75 | – | – | – | – | – | –
CCOC(=O)C1=C(c2ccccc2)NC(c2ccccc2)=C(C(=O)OCC)c2c1c(=O)cc[nH]c2=O | > 100 | > 100 µM | > 100 µM | > 100 | > 100 | > 100 | > 100 µM | > 100 µM | > 100 | > 100 | > 100 | > 100 µM | > 100 µM | – | – | – | – | – | – | –
COc1ccc(-c2cc(=O)c3ccc(F)cc3[nH]2)cc1 | > 100 | > 100 µM | > 100 µM | > 100 | – | > 100 | > 100 µM | > 100 µM | > 100 | > 100 | > 100 | > 100 µM | > 100 µM | > 100 | – | – | – | – | – | –
C=CCN(N=O)C(=O)N(CCCCC(NC(C)=O)C(=O)NCc1ccccc1)Cc1ccccc1 (stereo not given) | > 100 | > 100 µM | > 100 µM | > 100 | > 100 | 36.7 | > 100 µM | > 100 µM | – | > 100 | > 100 | 57.3 µM | > 100 µM | 81.6 | – | – | – | – | – | –
O=C(Nc1ccccc1[N+](=O)[O-])C(=O)C(C(=O)c1ccccc1-c1ccccc1)C1OC(=O)c2ccccc21 (stereo not given) | 72.6 | 32.8 µM | > 100 µM | 30.7 | 38.5 | 34.9 | – | > 100 µM | 44.8 | 23 | 27.5 | – | 47.1 µM | 31.6 | – | – | – | – | – | –
O=C1COc2cc3c(cc2N1)SCCC(=O)N3 | > 100 | > 100 µM | > 100 µM | – | > 100 | – | > 100 µM | – | > 100 | > 100 | > 100 | > 100 µM | > 100 µM | > 100 | – | – | – | – | – | –
COc1ccc(/C(=C\c2cc(OC)c(OC)c(OC)c2)C(=O)O)cc1 | > 100 | > 100 µM | – | > 100 | > 100 | 45 | 62.3 µM | > 100 µM | > 100 | > 100 | > 100 | > 100 µM | > 100 µM | > 100 | – | – | – | – | – | –
O=[N+]([O-])c1cc(Cl)ccc1S(=O)(=O)c1ccc(Cl)cc1[N+](=O)[O-] | 70 | 31 µM | 29.4 µM | 31.5 | 27.2 | 31.3 | – | 29.7 µM | 29.4 | 27.2 | 28.7 | 32.6 µM | 31.5 µM | 30.4 | – | – | – | – | – | –
CC(=O)OCC1OC(n2c(=S)n(-c3ccccc3)c(=O)c3cc(Br)ccc32)C(OC(C)=O)C(OC(C)=O)C1OC(C)=O (stereo not given) | > 100 | > 100 µM | > 100 µM | > 100 | > 100 | > 100 | 61.2 µM and > 100 µM | > 100 µM | > 100 | > 100 | > 100 | > 100 µM | – | – | 22.1 µM and > 100 µM | 23.6 µM and > 100 µM | – | – | – | –
O=c1[nH]cc(COCC(O)CO)c(=O)[nH]1 (stereo not given) | > 100 | > 100 µM | > 100 µM | > 100 | > 100 | > 100 | > 100 µM | > 100 µM | > 100 | > 100 | > 100 | > 100 µM | > 100 µM | > 100 | – | – | – | – | – | –
CC(C)(C)OC(=O)NCC(=O)N(CCc1ccc(Cl)c(Cl)c1)CCN1CCCC1 | 37.7 | 32.2 µM | 32.1 µM | 30.2 | – | – | – | 40.8 µM | – | – | – | 19.4 µM | 31.5 µM | – | – | – | – | – | – | –
C=CCN1C(=O)/C(=C/c2ccc(OC)cc2)N=C1SC1OC(COC(C)=O)C(OC(C)=O)C(OC(C)=O)C1OC(C)=O (stereo not given) | > 100 | 48.1 µM and > 100 µM | 36 µM and > 100 µM | > 100 | – | – | – | 32.3 µM and > 100 µM | – | – | – | 46.4 µM and 59.4 µM | 39.6 µM and > 100 µM | – | – | – | 18.8 µM and 43.6 µM | 24.7 µM and 99.9 µM | 20.2 µM and > 100 µM | 15.4 µM and 77.3 µM
COc1ccc(C(c2cc(OC)c(OC)c(OC)c2)N2C(=O)CCC2C(=O)O)cc1 (stereo not given) | > 100 | > 100 µM | > 100 µM | > 100 | – | – | – | > 100 µM | – | – | – | > 100 µM | > 100 µM | – | – | – | – | – | – | –
O=C1CC2(CCNCC2)C(=O)N1N1CCCCC1 | > 100 | > 100 µM | > 100 µM | > 100 | – | – | – | > 100 µM | – | – | – | > 100 µM | > 100 µM | – | – | – | – | – | – | –
